Measurements: patent US5434132A, “Neuropeptide antagonists” (Imperial Cancer Research Technology, Ltd., priority 1988, dated 1995)
Like-named read-outs stand apart in the source and are kept apart here. Non-standard residues stand in square brackets, D forms with d. Residues, ends and D or L forms follow the SMILES beside them.

Assays:
bombesin/GRP receptor = target: T1, bombesin/GRP receptor (Mus musculus, UniProt P21729); assay: 125I-GRP binding to membrane preparations of Swiss 3T3 cells; design: species or system murine
T1 construct: Membrane protein (150 μg) prepared from Swiss 3T3 cells as described above; endogenous in cells; host or cells: Swiss 3T3 cells; membrane-enriched fraction prepared with 5 mM Mg2+
T1 sequence (P21729 whole entry): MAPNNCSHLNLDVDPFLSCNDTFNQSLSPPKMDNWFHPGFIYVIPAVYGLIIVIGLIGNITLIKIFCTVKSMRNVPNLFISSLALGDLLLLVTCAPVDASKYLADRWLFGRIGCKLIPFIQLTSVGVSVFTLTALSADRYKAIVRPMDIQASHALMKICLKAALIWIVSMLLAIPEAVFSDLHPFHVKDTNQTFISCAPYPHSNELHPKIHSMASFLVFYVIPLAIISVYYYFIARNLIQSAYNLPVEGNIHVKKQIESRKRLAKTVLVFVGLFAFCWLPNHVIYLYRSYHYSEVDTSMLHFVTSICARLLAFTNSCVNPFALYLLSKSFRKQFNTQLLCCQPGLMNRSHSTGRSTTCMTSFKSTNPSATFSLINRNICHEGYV
Method: Membrane preparation: Cultures in roller bottles were washed twice with 150 ml phosphate buffered saline (PBS) (0.14M NaCl, 5 mM KCl, 0.01M Na2 HPO4, 1.8 mM KH2 PO4; pH 7.2) at room temperature. The cells were then harvested at 4° C. by scraping into ice cold PBS containing 5 mM MgCl2, 1 mM [ethylenebis(oxyethylenenitrilo)]tetraacetic acid (EGTA), 1 mg/ml bacitracin, 10 ug/ml aprotonin, 1 mg/ml soybean trypsin inhibitor and 50 μM phenylmethylsulphonyl fluoride. All subsequent steps were carried out at 4° C. The cells were pelleted by centrifugation at 750 x g for 10 minutes and resuspended 5×10^6 /ml in solution A containing 50 mM 4-(2-Hydroxyethyl)-1-piperazineethanesulfonic acid (Hepes), 5 mM MgCl2, 1 mM EGTA, 1 mg/ml bacitracin, 10 μg/ml aprotonin, 1 mg/ml soybean trypsin inhibitor and 50 μM phenylmethylsulfonyl fluoride, adjusted to pH 7.4 with NaOH at 4° C. Cells were then disrupted using a Dounce homogeniser (A pestle) 75 strokes. The homogenate was centrifuged at 500 x g for 10 minutes to remove nuclear material and intact cells and the supernatant was centrifuged again at 30000 x g for 30 minutes. The resulting pellet, representing a membrane-enriched preparation was resuspended at a protein concentration of 5 to 10 mg/ml in solution A and stored in liquid nitrogen. For experiments, membranes were thawed and diluted to a concentration of 1 mg/ml with solution A.
Receptor binding assay: Binding assays were carried out in a total volume of 100 ul in binding medium containing 50 mM Hepes, 5 mM MgCl2, 1 mg/ml bacitracin and 1% bovine serum albumin (BSA), adjusted to pH 7.4 with NaOH, unless otherwise indicated. […] Non-specific binding was subtracted from the total binding to obtain specific binding. The membranes were incubated for either 10 minutes at 37° C. or 30 minutes: at 15° C. as indicated.
The binding reactions were terminated at the specified times by rapid filtration on GF/B glass fibre filters (Whatmann, 1.0 μm pore size). Each filter was washed five times with 5 ml of PBS containing 1% BSA at 4° C. (15 s total time) using a Millipore filtration apparatus. Before the addition of membranes the filters were soaked for 24 hours in 5% polyethylenimine at 4° C. and washed with 5 ml of PBS containing 1% BSA immediately prior to use. […] Radioactivity was determined with a Beckmann γ-counter.
When 1n[(Beq - Bt)/(BoLo - Beq Bt)]is plotted as a function of time k1 can be determined from the slope by the following relation k1 =slope x [Beg/(Beg^2 - BoLo)](36) where Bo and Lo are the initial concentrations of receptor and ligand respectively. Bt is the concentration of receptor-ligand complex at time t and Beg is its concentration at equilibrium. Equation (1) takes into account the decrease in free ligand concentration that occurs during the binding reaction.
The first order rate constant of dissociation was determined from the slope of the line obtained by plotting ln(Bt/Beg) as a function of time.
The reactions were terminated and specific binding determined as described in "Experimental Procedures".

Mr 75,000-85,000 protein = target: T2, Mr 75,000-85,000 protein (Mus musculus, UniProt P21729); assay: Chemical cross-linking (EGS) of 125I-GRP to the Mr 75,000-85,000 protein in Swiss 3T3 membranes; type: binding, murine; details: for 125I-GRP affinity labelling of the Mr 75,000-85,000 protein: 0.5 nM 125I-GRP, 37° C., 10 minutes, None 100
T2 construct: Membrane protein (150 μg) prepared from Swiss 3T3 cells as described above; endogenous in cells; host or cells: Swiss 3T3 cells; membrane-enriched fraction prepared with 5 mM Mg2+
T2 sequence (P21729 whole entry): as above
Method: BSA was omitted from all solutions used in the cross-linking studies. At the end of the incubation the membranes were centrifuged at 1000 rpm for 1 minute in a MSE microfuge at room n temperature. The pellets were then resuspended in cross-linking medium containing 4 mM of the cross-linking reagent (EGS) and incubated at 37° C. or 15° C. for 5 minutes or 15 minutes respectively. The reaction was terminated by centrifugation for 1 minute followed by one wash with cross-linking medium and centrifugation. Samples were solubilised in 0.20 ml of 2× sample buffer, (0.2 M Tris-HCl pH 6.8, 10% (w/v) glycerol, 6% sodium dodecyl sulphate (SDS) (w/v), 4% β-mercaptoethanol (v/v), and 2 mM EDTA), immediately heated to 100° C. for 10 minutes and analysed by one dimensional electrophoresis.
SDS-Polyacrylaaide Gel glectrophoresis: Slab gel electrophoresis was performed using 8% acrylamide in the separating gel and 4% in the stacking gel and 0.1% SDS (37). After electrophoresis gels were stained, desrained and dried down onto paper for autoradiography with Fuji x-ray film. Dried gels were exposed for 2-4 days at -70° C. Autoradiograms were scanned using an LKB ultrascan XL densitometer; and the incorporation of radioactivity into the Mr 75,000-85,000 band was quantified using the Ultroscan XL internal digital integrator.
Following incubation at 37° C. for 10 minutes the membranes were pelleted by centrifugation and chemical cross-linking carried out as described in "Experimental Procedures" using 4 mM EGS. The samples were analyzed by SDS-PAGE and scanning densitometry of the autoradiograms as described in "Experimental Procedures".

vasopressin receptor = target: T3, vasopressin receptor (Mus musculus, UniProt Q62463); details: references 4,12,13; cited from earlier work
T3 construct: endogenous in cells; host or cells: Swiss 3T3 cells
T3 sequence (Q62463 whole entry): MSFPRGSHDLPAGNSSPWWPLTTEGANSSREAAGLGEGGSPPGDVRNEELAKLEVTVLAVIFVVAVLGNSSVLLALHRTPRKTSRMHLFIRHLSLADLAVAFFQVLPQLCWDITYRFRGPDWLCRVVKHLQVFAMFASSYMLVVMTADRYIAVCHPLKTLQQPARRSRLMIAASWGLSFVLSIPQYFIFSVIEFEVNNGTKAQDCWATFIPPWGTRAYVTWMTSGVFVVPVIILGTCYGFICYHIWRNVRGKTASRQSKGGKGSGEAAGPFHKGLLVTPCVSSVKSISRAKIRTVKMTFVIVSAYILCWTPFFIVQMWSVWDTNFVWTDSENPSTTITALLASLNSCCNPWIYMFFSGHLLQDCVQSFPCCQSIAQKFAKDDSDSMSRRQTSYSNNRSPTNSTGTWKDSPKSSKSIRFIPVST

Swiss 3T3 cells [1] = test system: Swiss 3T3 cells
[2] = test system: small cell lung cancer (SCLC) cell lines; assay: Growth in vitro of small cell lung cancer (SCLC) cell lines; details: 5 of 5 cell lines tested: H69, H82, H128, H417 and UCH25
Swiss 3T3 cells [3] = details: references 4,12,13; cited from earlier work
[4] = 0.5 nM 125I-GRP, 15° C., 30 minutes
[5] = 10 min, read-out: 125I-GRP affinity labelling of the Mr 75,000-85,000 protein
[6] = addition at 1μM, 0.5 nM 125I-GRP, 37° C., 10 minutes, None 305 ± 9, mean±SEM, n=3

litorin
inhibition of specific binding of 125I-GRP to membrane preparations (bombesin/GRP receptor; concentration-dependent manner): inhibited
125I-GRP affinity labelling of the Mr 75,000-85,000 protein (Mr 75,000-85,000 protein; addition at 100 nM): 3 ± 1 % of maximum

Insulin: insulin purchased from Sigma
specific binding of 125I-GRP to membranes (bombesin/GRP receptor; addition at 1.5 μM, 0.5 nM 125I-GRP, 37° C., 10 minutes, None 305 ± 9): 332 ± 6 fmole/mg protein
125I-GRP affinity labelling of the Mr 75,000-85,000 protein (Mr 75,000-85,000 protein; addition at 1.5 μM): 113 ± 3 % of maximum

CC(C)C[C@H](NC(=O)[C@H](CC(C)C)NC(=O)[C@@H](Cc1c[nH]c2ccccc12)NC(=O)[C@H](Cc1ccccc1)NC(=O)[C@@H](Cc1c[nH]c2ccccc12)NC(=O)[C@H](CCC(N)=O)NC(=O)[C@H](CCC(N)=O)NC(=O)[C@@H]1CCCN1C(=O)[C@H](CCCCN)NC(=O)[C@H]1CCCN1C(=O)[C@H](N)CCCNC(=N)N)C(N)=O [antagonist A, D-Arg-D-Pro-Lys-Pro-Gln-Gln-D-Tro-Phe-D-Trp-Leu-Leu-NH2] (H-[dR][dP]KPQQ[dW]F[dW]LL-NH2)
inhibition of [3H]vasopressin binding (vasopressin receptor): inhibit
IC50 (bombesin/GRP receptor; [4]): 38 µM
IC50 (Swiss 3T3 cells [1]): 90 µM
concentrations effective in inhibiting growth of SCLC [2]: 50 to 150 µM
inhibition of vasopressin-stimulated DNA synthesis (Swiss 3T3 cells [3]): inhibit

CSCC[C@H](NC(=O)[C@H](Cc1ccccc1)NC(=O)[C@H](Cc1cnc[nH]1)NC(=O)CNC(=O)[C@@H](NC(=O)[C@H](C)NC(=O)[C@H](Cc1c[nH]c2ccccc12)NC(=O)[C@H](CC(C)C)NC(=O)[C@H](CC(N)=O)NC(=O)CN)[C@@H](C)O)C(N)=O [neuromedin B]
IC50 (bombesin/GRP receptor): 0.18 µM
remaining activity at 1 µM (Mr 75,000-85,000 protein; [5]): 7 ± 2%

CC(C)C[C@H](NC(=O)[C@H](CC(C)C)NC(=O)[C@@H](Cc1c[nH]c2ccccc12)NC(=O)[C@H](Cc1ccccc1)NC(=O)[C@@H](Cc1c[nH]c2ccccc12)NC(=O)[C@H](CCC(N)=O)NC(=O)[C@@H](Cc1ccccc1)NC(=O)[C@@H]1CCCN1C(=O)[C@H](CCCCN)NC(=O)[C@@H]1CCCN1C(=O)[C@H](N)CCCN=C(N)N)C(N)=O [antagonist D, D-Arg-Pro-Lys-Pro-D-Phe-Gln-D-Trp-Phe-D-Trp-Leu-Leu-NH2] (H-[dR]PKP[dF]Q[dW]F[dW]LL-NH2)
IC50 (bombesin/GRP receptor; [4]): 7 µM

PDGF: Recombinant platelet derived growth factor c-sis
specific binding of 125I-GRP to membranes (bombesin/GRP receptor; addition at 15 nM, 0.5 nM 125I-GRP, 37° C., 10 minutes, None 305 ± 9): 341 ± 9 fmole/mg protein
125I-GRP affinity labelling of the Mr 75,000-85,000 protein (Mr 75,000-85,000 protein; addition at 15 nM): 104 ± 1 % of maximum

CSCC[C@H](NC(=O)[C@H](CC(C)C)NC(=O)[C@H](Cc1cnc[nH]1)NC(=O)CNC(=O)[C@@H](NC(=O)[C@H](C)NC(=O)[C@@H](N)Cc1c[nH]c2ccccc12)C(C)C)C(N)=O [bombesin (8-14)]
IC50 (bombesin/GRP receptor): 4 µM
remaining activity at 10 µM (Mr 75,000-85,000 protein; [5]): 5 ± 2%

CCCC(=O)O[C@@H]1[C@@H](C)[C@@]2(O)[C@@H](C=C(CO)C[C@]3(O)C(=O)C(C)=C[C@@H]23)[C@@H]2C(C)(C)[C@]12OC(=O)CCC [PBt2, phorbol 12,13-dibutyrate]
specific binding of 125I-GRP to membranes (bombesin/GRP receptor; addition at 400 nM, 0.5 nM 125I-GRP, 37° C., 10 minutes, None 305 ± 9): 305 ± 9 fmole/mg protein
125I-GRP affinity labelling of the Mr 75,000-85,000 protein (Mr 75,000-85,000 protein; addition at 400 nM): 111 ± 2 % of maximum

CSCC[C@H](NC(=O)[C@H](CC(C)C)NC(=O)[C@H](Cc1cnc[nH]1)NC(=O)CNC(=O)[C@@H](NC(=O)[C@H](C)NC(=O)[C@H](Cc1c[nH]c2ccccc12)NC(=O)[C@H](CCC(N)=O)NC(=O)[C@H](CC(N)=O)NC(=O)CNC(=O)[C@H](CC(C)C)NC(=O)[C@H](CCCN=C(N)N)NC(=O)[C@H](CCC(N)=O)NC(=O)[C@@H]1CCC(=O)N1)C(C)C)C(N)=O [bombesin]
specific binding of 125I-GRP to membranes (bombesin/GRP receptor): 7 ± 0.2 fmole/mg protein
remaining activity at 0.1 µM (Mr 75,000-85,000 protein; [5]): 5 ± 1%

NC(=O)CC[C@@H]1NC(=O)[C@H](Cc2ccccc2)NC(=O)[C@H](Cc2ccc(O)cc2)NC(=O)[C@@H](N)CSSC[C@@H](C(=O)N2CCC[C@H]2C(=O)N[C@@H](CCCN=C(N)N)C(=O)NCC(N)=O)NC(=O)[C@H](CC(N)=O)NC1=O [Vasopressin, vasopressin]
specific binding of 125I-GRP to membranes (bombesin/GRP receptor; [6]): 353 ± 10 fmole/mg protein
remaining activity at 1 µM (Mr 75,000-85,000 protein; [5]): 102 ± 1%

vasoactive intestinal peptide [VIP]
specific binding of 125I-GRP to membranes (bombesin/GRP receptor; [6]): 353 ± 10 fmole/mg protein

C[C@H](N)C(=O)NCC(=O)N[C@H]1CSSC[C@@H](C(=O)O)NC(=O)[C@H](CO)NC(=O)[C@H]([C@@H](C)O)NC(=O)[C@H](Cc2ccccc2)NC(=O)[C@H]([C@@H](C)O)NC(=O)[C@H](CCCCN)NC(=O)[C@H](Cc2c[nH]c3ccccc23)NC(=O)[C@H](Cc2ccccc2)NC(=O)[C@H](Cc2ccccc2)NC(=O)[C@H](CC(N)=O)NC(=O)[C@H](CCCCN)NC1=O [Somatostatin, somatostatin]
specific binding of 125I-GRP to membranes (bombesin/GRP receptor; [6]): 308 ± 8 fmole/mg protein

EGF: epidermal growth factor
specific binding of 125I-GRP to membranes (bombesin/GRP receptor; addition at 40 nM, 0.5 nM 125I-GRP, 37° C., 10 minutes, None 305 ± 9): 305 ± 6 fmole/mg protein
125I-GRP affinity labelling of the Mr 75,000-85,000 protein (Mr 75,000-85,000 protein; addition at 40 nM): 108 ± 1 % of maximum

substance K
specific binding of 125I-GRP to membranes (bombesin/GRP receptor; [6]): 314 ± 5 fmole/mg protein
